Broadly, the IC50 is the concentration that inhibits the measured activity by half.

Counter-ions that a name gives are not always drawn.

This test concerns DGAT. As to the kind of experiment: DGAT Phospholipid FlashPlate Assay. The format is biochemical. The note with it: DGAT pellet, DAG-coated PL-FlashPlate, 14C-Pal-CoA, 37° C. for 1 hour; read-out: DGAT Inhibition Activity IC50. Here is the method: DGAT Phospholipid FlashPlate Assay
Materials for the assay were: PL-FlashPlate: Phospholipid FlashPlates from PerkinElmer, catalog number SMP108; DAG (1,2-Dioleoyl-sn-glycerol) 10 mM suspended in water containing 0.1% Triton X-100; ^14C-Pal-CoA (palmitoyl coenzyme A, [palmitoyl-1-^14C]) from PerkinElmer, catalog number NEC-555 with a specific activity of 55 mCi/mmol; and DGAT pellet, with a protein concentration of 9.85 mg/ml.
Aqueous buffers were prepared or purchased as follows: The coating buffer (CB) was purchased from PerkinElmer, catalog number SMP900A; the reaction buffer (RB) was 50 mM Tris-HCl, pH 7.5, 100 mM NaCl, 0.01% BSA in water; the washing buffer (WB) is 50 mM Tris-HCl, pH 7.5, 100 mM NaCl, 0.05% deoxycholic acid sodium salt in water; the dilution buffer (DB) was 50 mM Tris-HCl, pH 7.5, 100 mM NaCl, 1 mM EDTA, 0.2% Triton X-100 in water.
1,2-Dioleoyl-sn-glycerol (DAG, 10 mmoles) was diluted to 500 μM with coating buffer (CB). The diluted DAG solution was then added to 384-well PL-FlashPlates at 60 μl per well, and incubated at room temperature for 2 days. The coated plates were then washed twice with washing buffer (WB) before use. Test compounds were serial diluted to 2000, 666.7, 222.2, 74.1, 24.7, 8.2, 2.7 and 0.9 μM in 100% DMSO. Diluted compound were further diluted 10 fold with reaction buffer (RB). ^14C-Pal-CoA was diluted to 8.3 μM with RB. The DGAT pellet was diluted to 0.13 mg protein/ml with dilution buffer (DB) immediately before it was added to the PL-FlashPlates to start the reaction. 20 μl of the RB-diluted compounds (or 10% DMSO in RB for Total and Blank), 15 μl of RB diluted 14C-Pal-CoA and 15 μl of DB diluted DGAT pellet (DB without DGAT for Blanks) were transferred to each well of the PL-FlashPlates. The reaction mixtures were incubated at 37° C. for 1 hour. The reactions were stopped by washing 3 times with WB. Plates were sealed with Top-seal and read on a Topcount instrument.
Calculation of IC50: The IC50 values for each compound were generated using an Excel template. The Topcount rpm readings of Total and Blank were used as 0% and 100% inhibition. The percent inhibition values of reactions in the presence of compounds were calculated, and plotted against compound concentrations. All data were fitted into a Dose Response One Site model (4 parameter logistic model) as the following: (A+((B−A)/(1+((x/C)^D)))), with A and B as the bottom and top of the curve (highest and lowest inhibition), respectively, and C as IC50 and D as Hill Coefficient of the compound.
For the molecule `CCOC(=O)N1CC[C@H](Nc2ccc(NC(=O)c3cc4cc(C(F)(F)F)ccc4s3)cn2)C1` [Example 49, (S)-3-{5-[(5-Trifluoromethyl-benzo[b]thiophene-2-carbonyl)-amino]-pyridin-2 ylamino}-pyrrolidine-1-carboxylic acid ethyl ester hydrochloride], the IC50 worked out at 594 nM. Consider `CCOC(=O)N1CC[C@H](Nc2ccc(NC(=O)c3cc4cc(Br)ccc4n3CC)cn2)C1` [Example 50, (S)-3-{5-[(5-Bromo-1-ethyl-1H-indole-2-carbonyl)-amino]-pyridin-2-ylamino}-pyrrolidine-1-carboxylic acid ethyl ester hydrochloride], for which the IC50 amounted to 929 nM. For `CCOC(=O)N1CC[C@H](Nc2ccc(NC(=O)c3cc4cc(OC)ccc4n3CC)cn2)C1` [Example 51, (S)-3-{5-[(1-Ethyl-5-methoxy-1H-indole-2-carbonyl)-amino]-pyridin-2-ylamino}-pyrrolidine-1-carboxylic acid ethyl ester hydrochloride], the IC50 came out at 343 nM. As for `CCOC(=O)N1CC[C@H](Nc2ccc(NC(=O)c3cc4c(OC)cc(OC)cc4n3CC)cn2)C1` [Example 52, (S)-3-{5-[(1-Ethyl-4,6-dimethoxy-1H-indole-2-carbonyl)-amino]-pyridin-2-ylamino}pyrrolidine-1-carboxylic acid ethyl ester], the figure is 229 nM. Turning to `CCOC(=O)N1CC[C@H](Nc2ccc(NC(=O)c3cc4c(C)cccc4n3CC)cn2)C1` [Example 53, (S)-3-{5-[(1-Ethyl-4-methyl-1H-indole-2-carbonyl)-amino]-pyridin-2-ylamino}-pyrrolidine-1-carboxylic acid ethyl ester hydrochloride], the IC50 worked out at 209 nM. Regarding `CCOC(=O)N1CC[C@H](Nc2ccc(NC(=O)c3cc4c(OC)c(OC)ccc4n3CC)cn2)C1` [Example 54, (S)-3-{5-[(1-Ethyl-4,5-dimethoxy-1H-indole-2-carbonyl)-amino]-pyridin-2-ylamino}pyrrolidine-1-carboxylic acid ethyl ester hydrochloride], the IC50 is 309 nM. Take `CCOC(=O)N1CC[C@H](Nc2ccc(NC(=O)c3cc4c(OCC)cccc4n3CC)cn2)C1` [Example 55, (S)-3-{5-[(4-Ethoxy-1-ethyl-1H-indole-2-carbonyl)-amino]-pyridin-2-ylamino}-pyrrolidine-1-carboxylic acid ethyl ester hydrochloride]: the IC50 came to 414 nM. Consider `CCOC(=O)N1CC[C@H](Nc2ccc(NC(=O)c3cc4cc(Cl)ccc4n3CC)cn2)C1` [Example 56, (S)-3-{5-[(5-Chloro-1-ethyl-1H-indole-2-carbonyl)-amino]-pyridin-2-ylamino}-pyrrolidine-1-carboxylic acid ethyl ester], for which the IC50 was determined as 671 nM. In the case of `CCOC(=O)N1CC[C@H](Nc2ccc(NC(=O)c3cc4c(Cl)c(Cl)ccc4n3CC)cn2)C1` [Example 57, (S)-3-{5-[(4,5-Dichloro-1-ethyl-1H-indole-2-carbonyl)-amino]-pyridin-2-ylamino}-pyrrolidine-1-carboxylic acid ethyl ester hydrochloride], the IC50 worked out at 548 nM. Take `CCn1c(C(=O)Nc2ccc(N[C@H]3CCN(C(=O)NC(C)(C)C)C3)nc2)cc2c(C)cccc21` [Example 58, 1-Ethyl-4-methyl-1H-indole-2-carboxylic acid [6-((8)-1-tert-butylcarbamoyl-pyrrolidin-3-ylamino)-pyridin-3-yl]-amide hydrochloride]: the IC50 was found to be 247 nM.

As to `CCn1c(C(=O)Nc2ccc(N3CCN(C(=O)OC(C)(C)C)CC3)cc2)cc2c(Cl)c(Cl)ccc21` [Example 59, 4-{4-[(4,5-Dichloro-1-ethyl-1H-indole-2-carbonyl)-amino]-phenyl}-piperazine-1-carboxylic acid tert-butyl ester], the IC50 is 821 nM. With `CCn1c(C(=O)Nc2ccc(N3CCN(C(=O)CC(C)(C)C(=O)O)CC3)cc2)cc2c(Cl)c(Cl)ccc21` [Example 60, 4-(4-{4-[(4,5-Dichloro-1-ethyl-1H-indole-2-carbonyl)-amino]-phenyl}-piperazin-1-yl)-2,2-dimethyl-4-oxo-butyric acid], the IC50 came out at 210 nM. For the molecule `CCn1c(C(=O)Nc2ccc(C3CCN(C(=O)CC(C(=O)O)c4ccccc4)CC3)cc2)cc2c(Cl)c(Cl)ccc21` (stereo not shown) [Example 61, 4-(4-{4-[(4,5-Dichloro-1-ethyl-1H-indole-2-carbonyl)-amino]-phenyl}-piperidin-1-yl)-4-oxo-2-phenyl-butyric acid], the IC50 was found to be 790 nM.

For the molecule `CCn1c(C(=O)Nc2ccc(C3CCN(C(=O)CC4(C(=O)O)CCCC4)CC3)cc2)cc2c(Cl)c(Cl)ccc21` [Example 62, 1-[2-(4-{4-[(4,5-Dichloro-1-ethyl-1H-indole-2-carbonyl)-amino]-phenyl}-piperidin-1-yl)-2-oxo-ethyl]-cyclopentanecarboxylic acid], the IC50 came to 240 nM. As for `CCn1c(C(=O)Nc2ccc(N3CCN(C(=O)CC(C(=O)O)C4CCCCC4)CC3)cc2)cc2c(Cl)c(Cl)ccc21` (stereo not shown) [Example 63, 2-Cyclohexyl-4-(4-{4-[(4,5-dichloro-1-ethyl-1H-indole-2-carbonyl)-amino]-phenyl}-piperazin-1-yl)-4-oxo-butyric acid hydrochloride], the IC50 is 351 nM. Regarding `CCn1c(C(=O)Nc2ccc(N3CCN(C(=O)CC(C(=O)O)C(C)C)CC3)cc2)cc2c(Cl)c(Cl)ccc21` (stereo not shown) [Example 64, 2-[2-(4-{4-[(4,5-Dichloro-1-ethyl-1H-indole-2-carbonyl)-amino]-phenyl}-piperazin-1-yl)-2-oxo-ethyl]-3-methyl-butyric acid], the IC50 came out at 164 nM. For `CCOc1cccc2c1cc(C(=O)Nc1ccc(O[C@H]3CCN(C(=O)OC(C)(C)C)C3)cc1)n2CC` [Example 65, (S)-3-{4-[(4-Ethoxy-1-ethyl-1H-indole-2-carbonyl)-amino]-phenoxy}-pyrrolidine-1-carboxylic acid tert-butyl ester], the IC50 is 701 nM. As for `CCOc1cccc2c1cc(C(=O)Nc1ccc(O[C@H]3CCN(C(=O)CC(C)(C)C(=O)O)C3)cc1)n2CC` [Example 66, 4-((S)-3-{4-[(4-Ethoxy-1-ethyl-1H-indole-2-carbonyl)-amino]-phenoxy}-pyrrolidin-1-yl)-2,2-dimethyl-4-oxo-butyric acid], the figure is 208 nM; as for `CCOc1cccc2c1cc(C(=O)Nc1ccc(O[C@H]3CCN(c4ccc(C(=O)O)cc4)C3)cc1)n2CC` [Example 67], 296 nM; as for `CCOc1cccc2c1cc(C(=O)Nc1ccc(N3CCN(C(=O)CC4SC(=O)NC4=O)CC3)cc1)n2CC` (stereo not shown) [Example 68, 4-Ethoxy-1-ethyl-1H-indole-2-carboxylic acid (4-{4-[2-(2,4-dioxo-thiazolidin-5-yl)-acetyl]-piperazin-1-yl}-phenyl)-amide hydrochloride], 289 nM.

Take `CCn1c(C(=O)Nc2ccc(N3CCN(C(=O)CC4SC(=O)NC4=O)CC3)cc2)cc2c(Cl)c(Cl)ccc21` (stereo not shown) [Example 69, 4,5-Dichloro-1-ethyl-1H-indole-2-carboxylic acid (4-{4-[2-(2,4-dioxo-thiazolidin-5-yl)-acetyl]-piperazin-1-yl}-phenyl)-amide]: the IC50 worked out at 236 nM. For the molecule `CCn1c(C(=O)Nc2ccc(N3CCN(c4ccc(C(=O)O)cc4)CC3)cc2)cc2c(Cl)c(Cl)ccc21` [Example 70, 4-(4-{4-[(4,5-Dichloro-1-ethyl-1H-indole-2-carbonyl)-amino]-phenyl}-piperazin-1-yl)-benzoic acid], the IC50 is 319 nM. On to `COc1cccc2c(C)c(C(=O)Nc3ccc(N4CCN(C(=O)OC(C)(C)C)CC4)cc3)[nH]c12` [Example 71, 4-{4-[(7-Methoxy-3-methyl-1H-indole-2-carbonyl)-amino]-phenyl}-piperazine-1-carboxylic acid tert-butyl ester], for which the IC50 is 188 nM. As to `COCCN(C)c1ccc(NC(=O)c2[nH]c3c(OC)cccc3c2C)cn1` [Example 72, 7-Methoxy-3-methyl-1H-indole-2-carboxylic acid {6-[(2-methoxy-ethyl)-methyl-amino]pyridin-3-yl}-amide], the IC50 came to 117 nM. As to `CCOC(=O)N1CCC(Oc2ccc(NC(=O)c3[nH]c4c(OC)cccc4c3C)cc2)C1` (stereo not shown) [Example 73, 3-{4-[(7-Methoxy-3-methyl-1H-indole-2-carbonyl)-amino]-phenoxy}-pyrrolidine-1-carboxylic acid ethyl ester], the IC50 came to 90 nM.

The record behind these values is patent publication US8124766B2, “Inhibitors of diacylglycerol acyltransferase” (Madrigal Pharmaceuticals, Inc., priority 2008, dated 2012).
